According to patent US11530233B2, “Beta-nicotinate ester nucleotides and processes for preparing same” (Cornell University, priority 2017, dated 2022):

Assays:
[1] = test system: HEK293 cells; assay: Intracellular NAD+ levels in HEK293 cells after 8 h incubation with NaMN or NR; assay type: cell-based, human; settings: 1 mM, HEK293, FIG. 4
Procedure: (§1) The ability of nicotinic acid mononucleotide, NaMN, to serve as an NAD^+ enhancing agent in mammalian cell lines, Neuro2a and HEK293 cells was examined after an 8 h incubation. NaMN was added to cell growth media at a concentration of 1 mM. All cell treatments were done in duplicate. Nicotinamide riboside (NR) at 1 mM concentration was performed as a positive control. Untreated cells served as negative controls. Cells were treated for the allotted time then harvested by trysin detachment and pelleting. Cells were counted by haemocytometer and then lysed by treatment with 100 μL perchloric acid (7%). Lysates were then neutralized by treatment with NaOH and K2PO4 solutions. NAD^+ concentrations were determined by a daphorase-based assay. NAD^+ standards were also run to establish a standard curve. The results are graphically depicted in FIG. 4.

[2] = test system: Neuro2a cells; assay: Intracellular NAD+ levels in Neuro2a cells after 8 h incubation with NaMN or NR; assay type: cell-based; settings: 1 mM, FIG. 4
Procedure: as §1

[3] = test system: HEK-293 cells; assay: NAD+ concentration in HEK-293 cells after treatment with nicotinic acid ester mononucleotides (NAD+ cycling assay); assay type: cell-based, human; settings: HEK293, 24 hr incubation
Procedure: L. et al., Arch. Biochem. Biophys., 175: 627-634 (1976)). The cells were washed with PBS, counted by haemocytometry and pelleted. The cells were then treated with 7% perchloric acid, and then neutralized with 1 M NaOH and 500 mM potassium phosphate pH 8.5. NAD^+ contents were then measured on a plate reader using diaphorase and lactate dehydrogenase using Resazurin as a dye that is reduced to rezarufin (emission 560 nm). NAD^+ levels were quantitated using a standard curve using known NAD^+ concentrations. NAD^+ concentrations are determined to nmol NAD^+/10^6 cells. All values in Table 1 are listed as compared to control.

SMILES | intracellular NAD^+ content versus untreated cells [1] | intracellular NAD^+ content versus untreated cells [2] | NAD^+ Level (% versus control) ([3]; 25 μM) | NAD^+ Level (% versus control) ([3]; 100 μM) | NAD^+ Level (% versus control) ([3]; 500 μM) | NAD^+ Level (% versus control) ([3]; 200 μM)
O=C(O)c1ccc[n+]([C@@H]2O[C@H](COP(=O)(O)O)[C@@H](O)[C@H]2O)c1 [NaMN, nicotinic acid mononucleotide] | No intracellular increase in NAD^+ | No intracellular increase in NAD^+ | – | – | – | –
CCCCOC(=O)c1ccc[n+]([C@@H]2O[C@H](COP(=O)([O-])O)[C@H](O)[C@@H]2O)c1 [compound 5b, ((2R,3R,4S,5R)-3,4-dihydroxy-5-(3-(butoxycarbonyl)pyridin-1-ium-1-yl)tetrahydrofuran-2-yl)methyl hydrogen phosphate] | – | – | 104 ± 29 % versus control | 165 ± 31 % versus control | 103 ± 32 % versus control | –
NC(=O)c1ccc[n+]([C@@H]2O[C@H](CO)[C@@H](O)[C@H]2O)c1 [NR, Nicotinamide riboside] | increased NAD^+ contents in cells | increased NAD^+ contents in cells | – | – | – | –
CCCCCCCOC(=O)c1ccc[n+]([C@@H]2O[C@H](COP(=O)([O-])O)[C@H](O)[C@@H]2O)c1 [compound 5e, ((2R,3R,4S,5R)-3,4-dihydroxy-5-(3-(heptyloxycarbonyl)pyridin-1-ium-1-yl)tetrahydrofuran-2-yl)methyl hydrogen phosphate] | – | – | 152 ± 19 % versus control | 150 ± 11 % versus control | 123 ± 21 % versus control | –
CCCCCOC(=O)c1ccc[n+]([C@@H]2O[C@H](COP(=O)([O-])O)[C@H](O)[C@@H]2O)c1 [compound 5c, ((2R,3R,4S,5R)-3,4-dihydroxy-5-(3-(pentyloxycarbonyl)pyridin-1-ium-1-yl)tetrahydrofuran-2-yl)methyl hydrogen phosphate] | – | – | 80 ± 21 % versus control | 105 ± 26 % versus control | 124 ± 27 % versus control | 171 ± 18 % versus control
CCCCCCOC(=O)c1ccc[n+]([C@@H]2O[C@H](COP(=O)([O-])O)[C@H](O)[C@@H]2O)c1 [compound 5d, ((2R,3R,4S,5R)-3,4-dihydroxy-5-(3-(hexyloxycarbonyl)pyridin-1-ium-1-yl)tetrahydrofuran-2-yl)methyl hydrogen phosphate] | – | – | 136 ± 26 % versus control | 162 ± 15 % versus control | 146 ± 48 % versus control | –
CCCCCCCCOC(=O)c1ccc[n+]([C@@H]2O[C@H](COP(=O)([O-])O)[C@H](O)[C@@H]2O)c1 [compound 5f, ((2R,3R,4S,5R)-3,4-dihydroxy-5-(3-(octyloxycarbonyl)pyridin-1-ium-1-yl)tetrahydrofuran-2-yl)methyl hydrogen phosphate] | – | – | – | – | – | 90 ± 8.7 % versus control
